{"source": "patent US9695205B2", "about": "“Amide compounds for treatment of complement mediated disorders” (Achillion Pharmaceuticals, Inc., priority 2014, dated 2017)"}
{"target": "Human factor D (Homo sapiens (Human), UniProt P00746)", "sequence (P00746 26-253)": "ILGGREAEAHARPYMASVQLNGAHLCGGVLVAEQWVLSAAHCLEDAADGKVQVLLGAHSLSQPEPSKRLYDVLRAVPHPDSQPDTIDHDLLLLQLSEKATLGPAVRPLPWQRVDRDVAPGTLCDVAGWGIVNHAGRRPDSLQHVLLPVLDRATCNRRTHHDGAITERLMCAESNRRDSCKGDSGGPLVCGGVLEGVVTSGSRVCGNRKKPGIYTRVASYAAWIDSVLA", "assay": "Human Factor D Assay", "format": "biochemical", "settings": "Human factor D 80 nM, substrate Z-L-Lys-SBzl and DTNB 100 μM each, pH 7.5", "description": "Example 14. Human Factor D Assay\nHuman factor D (purified from human serum, Complement Technology, Inc.) at 80 nM final concentration is incubated with test compound at various concentrations for 5 minutes at room temperature in 50 mM Tris, 1M NaCl, pH 7.5. A synthetic substrate Z-L-Lys-SBzl and DTNB (Ellman's reagent) are added to final concentrations of 100 μM each. The increase in color is recorded at OD405 nm in a microplate in kinetic mode over 30 minutes with 30 second time points in a spectrofluorimeter. IC50 values are calculated by non-linear regression from the percentage of inhibition of complement factor D activity as a function of test compound concentration.", "units": {"IC50": "nM"}}
{"smiles": "CC(=O)c1cn(CC(=O)N2C[C@H](F)C[C@H]2C(=O)NCc2cccc(Cl)c2F)c2cc(C(=O)NS(C)(=O)=O)ccc12", "note": "[Compound 43, 3-acetyl-1-(2-((2S,4R)-2-(3-chloro-2-fluorobenzylcarbamoyl)-4-fluoropyrrolidin-1-yl)-2-oxoethyl)-N-(methylsulfonyl)-1H-indole-6-carboxamide]", "IC50": "< 1000"}
{"smiles": "CC(=O)c1cn(CC(=O)N2C[C@H](F)C[C@H]2C(=O)NCc2cccc(Cl)c2F)c2ccc(NC(=O)N3CCC(F)(F)C3)cc12", "note": "[Compound 13]", "IC50": "< 1000"}
{"smiles": "CC(=O)c1cn(CC(=O)N2C[C@H](F)C[C@H]2C(=O)NCc2cccc(Cl)c2F)c2ccc(C(=O)N3CC4CCC3C4)cc12", "note": "(stereo partly drawn) [Compound 39, (2S,4R)-1-(2-(3-acetyl-5-(2-azabicyclo[2.2.1]heptane-2-carbonyl)-1H-indol-1-yl)acetyl)-N-(3-chloro-2-fluorobenzyl)-4-fluoropyrrolidine-2-carboxamide]", "IC50": "< 1000"}
{"smiles": "NC(=O)c1nn(CC(=O)N2C[C@H](F)C[C@H]2C(=O)Nc2cccc(-c3ccccc3Cl)c2F)c2ccc(NC(=O)N3CCC(F)(F)CC3)cc12", "note": "[Compound 31, 1-(2-((2S,4R)-2-(2′-chloro-2-fluorobiphenyl-3-ylcarbamoyl)-4-fluoropyrrolidin-1-yl)-2-oxoethyl)-5-(4,4-difluoropiperidine-1-carboxamido)-1H-indazole-3-carboxamide]", "IC50": "< 1000"}
{"smiles": "COC(=O)C1CCN(C(=O)c2ccc3c(C(C)=O)cn(CC(=O)N4C[C@H](F)C[C@H]4C(=O)NCc4cccc(Cl)c4F)c3c2)C1", "note": "(stereo partly drawn) [Compound 51, methyl 1-(3-acetyl-1-(2-((2S,4R)-2-(3-chloro-2-fluorobenzylcarbamoyl)-4-fluoropyrrolidin-1-yl)-2-oxoethyl)-1H-indole-6-carbonyl)pyrrolidine-3-carboxylate]", "IC50": "< 1000"}
{"smiles": "CC(=O)c1cn(CC(=O)N2C[C@H](F)C[C@H]2C(=O)NCc2cccc(Cl)c2F)c2cc(C(=O)NS(=O)(=O)C3CC3)ccc12", "note": "[Compound 48, 3-acetyl-1-(2-((2S,4R)-2-(3-chloro-2-fluorobenzylcarbamoyl)-4-fluoropyrrolidin-1-yl)-2-oxoethyl)-N-(cyclopropylsulfonyl)-1H-indole-6-carboxamide]", "IC50": "< 1000"}
{"smiles": "CC(=O)c1cn(CC(=O)N2C[C@H](F)C[C@H]2C(=O)NCc2cccc(Cl)c2F)c2cc(C(=O)N[C@H]3CCN(C(=O)OC(C)(C)C)C3)ccc12", "note": "[Compound 44, (S)-tert-butyl 3-(3-acetyl-1-(2-((2S,4R)-2-(3-chloro-2-fluorobenzylcarbamoyl)-4-fluoropyrrolidin-1-yl)-2-oxoethyl)-1H-indole-6-carboxamido) pyrrolidine-1-carboxylate]", "IC50": "< 1000"}
{"smiles": "CC(=O)c1cn(CC(=O)N2C[C@H](F)C[C@H]2C(=O)NCc2cccc(Cl)c2F)c2ccc(NC(=O)NCc3ncccn3)cc12", "note": "[Compound 8, (2S,4R)-1-(2-(3-acetyl-5-(3-(pyrimidin-2-ylmethyl)ureido)-1H-indol-1-yl)acetyl)-N-(3-chloro-2-fluorobenzyl)-4-fluoropyrrolidine-2-carboxamide]", "IC50": "< 1000"}
{"smiles": "NC(=O)c1nn(CC(=O)N2C[C@H](F)C[C@H]2C(=O)Nc2cccc(OC(F)(F)F)c2F)c2ccc(NC(=O)Nc3ccon3)cc12", "note": "[Compound 25, 1-(2-((2S,4R)-4-fluoro-2-(2-fluoro-3-(trifluoromethoxy)phenylcarbamoyl)pyrrolidin-1-yl)-2-oxoethyl)-5-(3-isoxazol-3-ylureido)-1H-indazole-3-carboxamide]", "IC50": "< 1000"}
{"smiles": "CC(=O)c1cn(CC(=O)N2C[C@H](F)C[C@H]2C(=O)NCc2cccc(Cl)c2F)c2ccc(C(=O)N3CCCC(F)(F)C3)cc12", "note": "[Compound 40, (2S,4R)-1-(2-(3-acetyl-5-(3,3-difluoropiperidine-1-carbonyl)-1H-indol-1-yl)acetyl)-N-(3-chloro-2-fluorobenzyl)-4-fluoropyrrolidine-2-carboxamide]", "IC50": "< 1000"}
{"smiles": "CC(=O)c1cn(CC(=O)N2C[C@H](F)C[C@H]2C(=O)NCc2cccc(Cl)c2F)c2ccc(NC(=O)NC3(C)CC3)cc12", "note": "[Compound 4, (2S,4R)-1-(2-(3-acetyl-5-(3-(1-methylcyclopropyl)ureido)-1H-indol-1-yl)acetyl)-N-(3-chloro-2-fluorobenzyl)-4-fluoropyrrolidine-2-carboxamide]", "IC50": "< 1000"}
{"smiles": "CC(=O)c1cn(CC(=O)N2[C@@H]3C[C@@H]3C[C@H]2C(=O)N[C@H](C)c2cccc(Cl)c2F)c2ccc(NC(=O)NC3CC3)cc12", "note": "[Compound 5, (1R,3S,5R)-2-(2-(3-acetyl-5-(3-cyclopropylureido)-1H-indol-1-yl)acetyl)-N-((R)-1-(3-chloro-2-fluorophenyl)ethyl)-2-azabicyclo[3.1.0]hexane-3-carboxamide]", "IC50": "< 1000"}
{"smiles": "CC(=O)c1cn(CC(=O)N2C[C@H](F)C[C@H]2C(=O)NCc2cccc(Cl)c2F)c2cc(C(=O)N[C@H]3CCNC3)ccc12", "note": "[Compound 45, 3-acetyl-1-(2-((2S,4R)-2-(3-chloro-2-fluorobenzylcarbamoyl)-4-fluoropyrrolidin-1-yl)-2-oxoethyl)-N-((S)-pyrrolidin-3-yl)-1H-indole-6-carboxamide]", "IC50": "< 1000"}
{"smiles": "CC(=O)c1cn(CC(=O)N2C[C@H](F)C[C@H]2C(=O)NCc2cccc(Cl)c2F)c2cc(C(=O)N3CCC(CN)C3)ccc12", "note": "(stereo partly drawn) [Compound 42, (2S,4R)-1-(2-(3-acetyl-6-(3-(aminomethyl)pyrrolidine-1-carbonyl)-1H-indol-1-yl)acetyl)-N-(3-chloro-2-fluorobenzyl)-4-fluoropyrrolidine-2-carboxamide]", "IC50": "< 1000"}
{"smiles": "CC(=O)c1cn(CC(=O)N2C[C@H](F)C[C@H]2C(=O)NCc2cccc(Cl)c2F)c2cc(NC(=O)OC(C)(C)C)ccc12", "note": "[Compound 37, tert-butyl 3-acetyl-1-(2-((2S,4R)-2-(3-chloro-2-fluorobenzylcarbamoyl)-4-fluoropyrrolidin-1-yl)-2-oxoethyl)-1H-indol-6-ylcarbamate]", "IC50": "< 1000"}
{"smiles": "CC(=O)c1cn(CC(=O)N2C[C@H](F)C[C@H]2C(=O)NCc2cccc(Cl)c2F)c2ccc(NC(=O)Nc3ccon3)cc12", "note": "[Compound 19, (2S,4R)-1-(2-(3-acetyl-5-(3-isoxazol-3-ylureido)-1H-indol-1-yl)acetyl)-N-(3-chloro-2-fluorobenzyl)-4-fluoropyrrolidine-2-carboxamide]", "IC50": "< 1000"}
{"smiles": "CC(=O)c1cn(CC(=O)N2C[C@H](F)C[C@H]2C(=O)NCc2cccc(Cl)c2F)c2ccc(NC(=O)N3CCCC3)cc12", "note": "[Compound 9, N-(3-acetyl-1-(2-((2S,4R)-2-(3-chloro-2-fluorobenzylcarbamoyl)-4-fluoropyrrolidin-1-yl)-2-oxoethyl)-1H-indol-5-yl)pyrrolidine-1-carboxamide]", "IC50": "< 1000"}
{"smiles": "CC(=O)c1cn(CC(=O)N2C[C@H](F)C[C@H]2C(=O)Nc2cccc(C(F)(F)F)n2)c2ccc(NC(=O)N3CCCC(F)(F)C3)cc12", "note": "[Compound 20, N-(3-acetyl-1-(2-((2S,4R)-4-fluoro-2-(6-(trifluoromethyl)pyridin-2-ylcarbamoyl)pyrrolidin-1-yl)-2-oxoethyl)-1H-indol-5-yl)-3,3-difluoropiperidine-1-carboxamide]", "IC50": "< 1000"}
{"smiles": "CC(=O)c1cn(CC(=O)N2C[C@H](F)C[C@H]2C(=O)NCc2cccc(Cl)c2F)c2ccc(NC(=O)N3CCCC(F)(F)C3)cc12", "note": "[Compound 16, N-(3-acetyl-1-(2-((2S,4R)-2-(3-chloro-2-fluorobenzylcarbamoyl)-4-fluoropyrrolidin-1-yl)-2-oxoethyl)-1H-indol-5-yl)-3,3-difluoropiperidine-1-carboxamide]", "IC50": "< 1000"}
{"smiles": "CC(=O)c1cn(CC(=O)N2C[C@H](F)C[C@H]2C(=O)NCc2cccc(Cl)c2F)c2ccc(NC(=O)OCC3CC3)cc12", "note": "[Compound 15, cyclopropylmethyl 3-acetyl-1-(2-((2S,4R)-2-(3-chloro-2-fluorobenzylcarbamoyl)-4-fluoropyrrolidin-1-yl)-2-oxoethyl)-1H-indol-5-ylcarbamate]", "IC50": "< 1000"}
{"smiles": "CC(=O)c1cn(CC(=O)N2C[C@H](F)C[C@H]2C(=O)Nc2cccc(-c3ccccc3Cl)c2F)c2ccc(NC(=O)C3CCC(F)(F)C3)cc12", "note": "(stereo partly drawn) [Compound 35, (2S,4R)-1-(2-(3-acetyl-5-(3,3-difluorocyclopentanecarboxamido)-1H-indol-1-yl)acetyl)-N-(2′-chloro-2-fluorobiphenyl-3-yl)-4-fluoropyrrolidine-2-carboxamide]", "IC50": "< 1000"}
{"smiles": "NC(=O)c1nn(CC(=O)N2C[C@H](F)C[C@H]2C(=O)Nc2cccc(-c3ccccc3Cl)c2F)c2ccc(NC(=O)N3CCCC(F)(F)C3)cc12", "note": "[Compound 24, 1-(2-((2S,4R)-2-(2′-chloro-2-fluorobiphenyl-3-ylcarbamoyl)-4-fluoropyrrolidin-1-yl)-2-oxoethyl)-5-(3,3-difluoropiperidine-1-carboxamido)-1H-indazole-3-carboxamide]", "IC50": "< 1000"}
{"smiles": "NC(=O)c1nn(CC(=O)N2C[C@H](F)C[C@H]2C(=O)Nc2cccc(-c3ncccc3Cl)c2F)c2ccc(NC(=O)N3CCCC(F)(F)C3)cc12", "note": "[Compound 29, 1-(2-((2S,4R)-2-(3-(3-chloropyridin-2-yl)-2-fluorophenylcarbamoyl)-4-fluoropyrrolidin-1-yl)-2-oxoethyl)-5-(3,3-difluoropiperidine-1-carboxamido)-1H-indazole-3-carboxamide]", "IC50": "< 1000"}
{"smiles": "CC(=O)c1cn(CC(=O)N2C[C@H](F)C[C@H]2C(=O)NCc2cccc(Cl)c2F)c2cc(C(=O)N3CCC(C(=O)O)C3)ccc12", "note": "(stereo partly drawn) [Compound 52, 1-(3-acetyl-1-(2-((2S,4R)-2(3-chloro-2-fluorobenzylcarbamoyl)-4-fluoropyrrolidin-1-yl)-2-oxoethyl)-1H-indole-6-carbonyl) pyrrolidine-3-carboxylic acid]", "IC50": "< 1000"}
